Data reported in patent US20100267561A1, “HERBICIDAL PYRIDAZINONE DERIVATIVES” (priority 2007, published 2010).

Legend:
Test in all cases: Test E pre-/postemergence plant response
Type in all cases: in vivo
[1] = test system: Italian ryegrass (Lolium multiflorum); details: scale 0 to 100
In short: (§1)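 Seeds were planted and treated preemergence with compound formulated in a non-phytotoxic solvent mixture containing surfactant; postemergence sprays in the same formulation went onto plants 2 to 18 cm tall (1- to 4-leaf stage). After 14 to 21 days in a greenhouse, injury versus untreated controls was rated visually, 0 (no effect) to 100 (complete control).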

[2] = test system: barnyardgrass (Echinochloa crus-galli); details: scale 0 to 100
In short: as §1

[3] = test system: black mustard (Brassica nigra); details: scale 0 to 100
In short: as §1

[4] = test system: broadleaf signalgrass (Brachiaria platyphylla); details: scale 0 to 100
In short: as §1

[5] = test system: common chickweed (Stellaria media); details: Postemergence, scale 0 to 100
In short: as §1

[6] = test system: common groundsel (Senecio vulgaris); details: Postemergence, scale 0 to 100
In short: as §1

[7] = test system: goosegrass (Eleusine indica); details: scale 0 to 100
In short: as §1

[8] = test system: green foxtail (Setaria viridis); details: scale 0 to 100
In short: as §1

[9] = test system: itchgrass (Rottboellia cochinchinensis); details: scale 0 to 100
In short: as §1

[10] = test system: johnsongrass (Sorghum halepense); details: scale 0 to 100
In short: as §1

[11] = test system: naked crabgrass (Digitaria nuda); details: scale 0 to 100
In short: as §1

[12] = test system: pitted morningglory (Ipomoea lacunosa); details: scale 0 to 100
In short: as §1

[13] = test system: quackgrass (Elytrigia repens); details: scale 0 to 100
In short: as §1

[14] = test system: southern (S.) sandbur (Cenchrus echinatus); details: scale 0 to 100
In short: as §1

[15] = test system: surinam grass (Brachiaria decumbens); details: scale 0 to 100
In short: as §1

## CCc1cc(-c2ccc(Cl)cc2)nn1-c1c(OS(C)(=O)=O)cnn(C)c1=O [Compound 39]
[1]; 16 g ai/ha, Preemergence
  Plant response rating, Ryegrass, Italian: 100
[1]; 31 g ai/ha, Preemergence
  Plant response rating, Ryegrass, Italian: 100
[1]; Postemergence, 8 g ai/ha
  Plant response rating, Ryegrass, Italian: 75
[1]; Postemergence, 16 g ai/ha
  Plant response rating, Ryegrass, Italian: 98
[1]; Postemergence, 31 g ai/ha
  Plant response rating, Ryegrass, Italian: 98
[1]; Postemergence, 62 g ai/ha
  Plant response rating, Ryegrass, Italian: 100
[2]; 8 g ai/ha, Preemergence
  Plant response rating, Barnyardgrass: 90
[2]; 16 g ai/ha, Preemergence
  Plant response rating, Barnyardgrass: 90
[2]; 31 g ai/ha, Preemergence
  Plant response rating, Barnyardgrass: 100
[2]; 62 g ai/ha, Preemergence
  Plant response rating, Barnyardgrass: 100
[2]; Postemergence, 8 g ai/ha
  Plant response rating, Barnyardgrass: 100
[2]; Postemergence, 16 g ai/ha
  Plant response rating, Barnyardgrass: 100
[2]; Postemergence, 31 g ai/ha
  Plant response rating, Barnyardgrass: 100
[2]; Postemergence, 62 g ai/ha
  Plant response rating, Barnyardgrass: 100
[3]; 8 g ai/ha, Preemergence
  Plant response rating, Mustard, Black: 0
[3]; 16 g ai/ha, Preemergence
  Plant response rating, Mustard, Black: 0
[3]; 31 g ai/ha, Preemergence
  Plant response rating, Mustard, Black: 0
[3]; 62 g ai/ha, Preemergence
  Plant response rating, Mustard, Black: 0
[3]; Postemergence, 8 g ai/ha
  Plant response rating, Mustard, Black: 0
[3]; Postemergence, 16 g ai/ha
  Plant response rating, Mustard, Black: 0
[3]; Postemergence, 31 g ai/ha
  Plant response rating, Mustard, Black: 0
[3]; Postemergence, 62 g ai/ha
  Plant response rating, Mustard, Black: 0
[4]; 16 g ai/ha, Preemergence
  Plant response rating, Signalgrass: 85
[4]; 31 g ai/ha, Preemergence
  Plant response rating, Signalgrass: 95
[4]; 62 g ai/ha, Preemergence
  Plant response rating, Signalgrass: 100
[4]; Postemergence, 8 g ai/ha
  Plant response rating, Signalgrass: 35
[4]; Postemergence, 16 g ai/ha
  Plant response rating, Signalgrass: 95
[4]; Postemergence, 31 g ai/ha
  Plant response rating, Signalgrass: 95
[4]; Postemergence, 62 g ai/ha
  Plant response rating, Signalgrass: 100
[5]; 8 g ai/ha
  Plant response rating, Chickweed: 0
[5]; 16 g ai/ha
  Plant response rating, Chickweed: 0
[5]; 31 g ai/ha
  Plant response rating, Chickweed: 0
[5]; 62 g ai/ha
  Plant response rating, Chickweed: 0
[6]; 31 g ai/ha
  Plant response rating, Groundsel: 0
[6]; 62 g ai/ha
  Plant response rating, Groundsel: 0
[7]; 8 g ai/ha, Preemergence
  Plant response rating, Goosegrass: 75
[7]; 16 g ai/ha, Preemergence
  Plant response rating, Goosegrass: 80
[7]; 31 g ai/ha, Preemergence
  Plant response rating, Goosegrass: 100
[7]; 62 g ai/ha, Preemergence
  Plant response rating, Goosegrass: 100
[7]; Postemergence, 8 g ai/ha
  Plant response rating, Goosegrass: 35
[7]; Postemergence, 16 g ai/ha
  Plant response rating, Goosegrass: 70
[7]; Postemergence, 31 g ai/ha
  Plant response rating, Goosegrass: 80
[7]; Postemergence, 62 g ai/ha
  Plant response rating, Goosegrass: 95
[8]; 8 g ai/ha, Preemergence
  Plant response rating, Foxtail, Green: 75
[8]; 16 g ai/ha, Preemergence
  Plant response rating, Foxtail, Green: 90
[8]; 31 g ai/ha, Preemergence
  Plant response rating, Foxtail, Green: 98
[8]; 62 g ai/ha, Preemergence
  Plant response rating, Foxtail, Green: 100
[8]; Postemergence, 8 g ai/ha
  Plant response rating, Foxtail, Green: 60
[8]; Postemergence, 16 g ai/ha
  Plant response rating, Foxtail, Green: 70
[8]; Postemergence, 31 g ai/ha
  Plant response rating, Foxtail, Green: 75
[8]; Postemergence, 62 g ai/ha
  Plant response rating, Foxtail, Green: 95
[9]; 16 g ai/ha, Preemergence
  Plant response rating, Itchgrass: 60
[9]; 31 g ai/ha, Preemergence
  Plant response rating, Itchgrass: 75
[9]; 62 g ai/ha, Preemergence
  Plant response rating, Itchgrass: 80
[9]; Postemergence, 8 g ai/ha
  Plant response rating, Itchgrass: 20
[9]; Postemergence, 16 g ai/ha
  Plant response rating, Itchgrass: 25
[9]; Postemergence, 31 g ai/ha
  Plant response rating, Itchgrass: 40
[9]; Postemergence, 62 g ai/ha
  Plant response rating, Itchgrass: 60
[10]; 16 g ai/ha, Preemergence
  Plant response rating, Johnsongrass: 75
[10]; 31 g ai/ha, Preemergence
  Plant response rating, Johnsongrass: 80
[10]; 62 g ai/ha, Preemergence
  Plant response rating, Johnsongrass: 98
[10]; Postemergence, 8 g ai/ha
  Plant response rating, Johnsongrass: 35
[10]; Postemergence, 16 g ai/ha
  Plant response rating, Johnsongrass: 75
[10]; Postemergence, 31 g ai/ha
  Plant response rating, Johnsongrass: 75
[10]; Postemergence, 62 g ai/ha
  Plant response rating, Johnsongrass: 95
[11]; 8 g ai/ha, Preemergence
  Plant response rating, Crabgrass, Naked: 75
[11]; 16 g ai/ha, Preemergence
  Plant response rating, Crabgrass, Naked: 98
[11]; 31 g ai/ha, Preemergence
  Plant response rating, Crabgrass, Naked: 98
[11]; 62 g ai/ha, Preemergence
  Plant response rating, Crabgrass, Naked: 100
[11]; Postemergence, 8 g ai/ha
  Plant response rating, Crabgrass, Naked: 65
[11]; Postemergence, 16 g ai/ha
  Plant response rating, Crabgrass, Naked: 80
[11]; Postemergence, 31 g ai/ha
  Plant response rating, Crabgrass, Naked: 80
[11]; Postemergence, 62 g ai/ha
  Plant response rating, Crabgrass, Naked: 98
[12]; 16 g ai/ha, Preemergence
  Plant response rating, Morningglory: 0
[12]; 31 g ai/ha, Preemergence
  Plant response rating, Morningglory: 0
[12]; 62 g ai/ha, Preemergence
  Plant response rating, Morningglory: 0
[12]; Postemergence, 8 g ai/ha
  Plant response rating, Morningglory: 0
[12]; Postemergence, 16 g ai/ha
  Plant response rating, Morningglory: 0
[12]; Postemergence, 31 g ai/ha
  Plant response rating, Morningglory: 0
[12]; Postemergence, 62 g ai/ha
  Plant response rating, Morningglory: 0
[13]; 16 g ai/ha, Preemergence
  Plant response rating, Quackgrass: 60
[13]; 31 g ai/ha, Preemergence
  Plant response rating, Quackgrass: 95
[13]; 62 g ai/ha, Preemergence
  Plant response rating, Quackgrass: 100
[13]; Postemergence, 8 g ai/ha
  Plant response rating, Quackgrass: 0
[13]; Postemergence, 16 g ai/ha
  Plant response rating, Quackgrass: 30
[13]; Postemergence, 31 g ai/ha
  Plant response rating, Quackgrass: 60
[13]; Postemergence, 62 g ai/ha
  Plant response rating, Quackgrass: 60
[14]; 16 g ai/ha, Preemergence
  Plant response rating, Sandbur, S.: 90
[14]; 31 g ai/ha, Preemergence
  Plant response rating, Sandbur, S.: 100
[14]; 62 g ai/ha, Preemergence
  Plant response rating, Sandbur, S.: 100
[14]; Postemergence, 8 g ai/ha
  Plant response rating, Sandbur, S.: 75
[14]; Postemergence, 16 g ai/ha
  Plant response rating, Sandbur, S.: 85
[14]; Postemergence, 31 g ai/ha
  Plant response rating, Sandbur, S.: 95
[14]; Postemergence, 62 g ai/ha
  Plant response rating, Sandbur, S.: 100
[15]; 16 g ai/ha, Preemergence
  Plant response rating, Surinam Grass: 100
[15]; 31 g ai/ha, Preemergence
  Plant response rating, Surinam Grass: 100
[15]; 62 g ai/ha, Preemergence
  Plant response rating, Surinam Grass: 100
[15]; Postemergence, 8 g ai/ha
  Plant response rating, Surinam Grass: 95
[15]; Postemergence, 16 g ai/ha
  Plant response rating, Surinam Grass: 100
[15]; Postemergence, 31 g ai/ha
  Plant response rating, Surinam Grass: 100
[15]; Postemergence, 62 g ai/ha
  Plant response rating, Surinam Grass: 100
